8 compounds from patent US8691256B2, “Pest control compositions and methods” (Tyratech, Inc., priority 2008, dated 2014) can be followed below.

Where two headings read alike, the source gives them in different places.

Data set [1] deals with Periplaneta americana. The data set can be described thus: Pesticidal effect (mortality) against Periplaneta americana. It is filed as in vivo. As to conditions: 30 minutes post-treatment, Blend 19 5%. As for the experimental part: With reference to FIG. 6A, the pesticidal effect against Periplaneta americana was determined for Blend 19 (labeled “HL1”, exemplified in Ingredient Family 15 in Table 6) and the composition including clothianidin (CL) and Blend 19.
With reference to FIG. 6B, the pesticidal effect against Periplaneta americana was determined for Blend 19 (labeled “HL1”) and the composition including Imidacloprid and Blend 19.

Data set [2] deals with Aedes aegypti. Briefly: Pesticidal effect (KD) against Aedes aegypti. It is filed as in vivo. As for the experimental part: With reference to FIG. 4A, the pesticidal effect against Aedes aegypti was determined for Blend 19 (labeled “HL1”, exemplified in Ingredient Family 15 in Table 6) and the composition including clothianidin (CL) and Blend 19.
Similarly, with reference to FIG. 4B, the pesticidal effect against Aedes aegypti was determined for Blend 19 (labeled “HL1”) and the composition including CL and Blend 19.
Similarly, with reference to FIG. 4C, the pesticidal effect against Aedes aegypti was determined for Blend 19 (labeled “HL1”) and the composition including Imidacloprid and Blend 19.
With reference to FIG. 5, the pesticidal effect against Aedes aegypti was determined for Blend 11 (labeled “B5028”, exemplified in Ingredient Family 2 in Table 6) and the composition including Imidacloprid (labeled “I”) and B5028.

Data set [3] has as its system Blattella germanica (German cockroaches). The data set can be described thus: Pesticidal effect against German cockroaches (knock down and 100% kill time). The format is in vivo. The method, then:
With reference to Table 9, the pesticidal effect against Blattella germanica (German cockroaches) was determined for DM, Blend 12 (exemplified in Ingredient Family 9 of Table 6), and the composition including deltamethrin (DM) and Blend 12.
Similarly, with reference to Table 10, the pesticidal effect against German cockroaches was determined for deltamethrin (DM), Blend 7 (exemplified in Ingredient Family 5 of Table 6), and the composition including DM and Blend 7.

Data set [4] has as its system Drosphila melanogaster. Briefly: Toxicity against Drosphila melanogaster by direct spray onto flies. The format is in vivo, Drosophila melanogaster. As to conditions: 30 flies per composition, Fipronil 20 ppm, Blend 19 0.5 μg/fly, combination 0.5 μg Blend 19 + 20 ppm fipronil. The method, then:
With reference to Table 14, the pesticidal effect against drosphila melanogaster was determined for Blend 19 and the composition including fipnoril and Blend 19. The composition of Blend 19 is also exemplified in Ingredient Family 15 of Table 6. Each composition was tested on 30 drosphila melanogaster by spraying directly onto the flies. Treatment with acetone as control at 0.5 μl/fly killed 2 flies, fipnoril alone at 20 ppm killed 12 flies, and Blend 19 alone at 0.5 μg/fly killed 10 flies. However, treatment with fipronil at 20 ppm combined with Blend 19 at 0.5 μg/fly killed all of the 30 flies.

Data set [5] has as its system adult green peach aphids. The data set can be described thus: Greenhouse spray test against adult green peach aphids. As to conditions: imidacloprid in water at 100 ppm; three days after spraying. The format is in vivo. The source says: Adult green peach aphids were observed and counted on the plants in a greenhouse. Then different compositions were sprayed directly onto the plants with aphids. Three days after the composition was applied, aphids were counted again to evaluate the pesticidal effects of the composition.

For data set [6], the system named is Drosophila sp. Briefly: Pesticidal effect (KD) against Drosophila sp. It is filed as in vivo. As to conditions: 30 seconds post-treatment; Imidacloprid 50 ppm; Blend 19 2.5%; combination 50 ppm + 2.5% (FIG. 4D). The method, then:
Similarly, with reference to FIG. 4D, the pesticidal effect against Drosophila sp. was determined for Blend 19 (labeled “HL1”) and the composition including Imidacloprid and Blend 19.

Data set [7] deals with thrips. Briefly: Knockdown and mortality of thrips. The format is in vivo. The method, then:
Thrips were exposed to three different groups of compositions. Both knockdown (KD) and mortality were measured at indicated time intervals. Knockdown of target pests is measured in a plexilglass chamber at indicated intervals. Mortality of target pests is measured in cylindrical polyethylene containers with 10% sucrose pads. The mortality value is based on a combination of dead and moribund pests over the total number of pests initially released.
Thrips were exposed to three different groups of compositions. […] The composition of Blend 8 is exemplified in Ingredient Family 21 in Table 6.
Thrips were exposed to three different groups of compositions. […] Blend 38 (label “B5049” and “TT 1A”) is exemplified in Ingredient Family 12 in Table 6.

For data set [8], the target named is T1, tyramine receptor (TyrR) (Drosophila melanogaster, UniProt P22270).
T1 construct: oligonucleotides that are used to amplify the open reading frame of the Drosophila tyramine receptor (TyrR); expressed in transfected cells; whole cells or crude membrane fractions
T1 sequence (P22270 27-601): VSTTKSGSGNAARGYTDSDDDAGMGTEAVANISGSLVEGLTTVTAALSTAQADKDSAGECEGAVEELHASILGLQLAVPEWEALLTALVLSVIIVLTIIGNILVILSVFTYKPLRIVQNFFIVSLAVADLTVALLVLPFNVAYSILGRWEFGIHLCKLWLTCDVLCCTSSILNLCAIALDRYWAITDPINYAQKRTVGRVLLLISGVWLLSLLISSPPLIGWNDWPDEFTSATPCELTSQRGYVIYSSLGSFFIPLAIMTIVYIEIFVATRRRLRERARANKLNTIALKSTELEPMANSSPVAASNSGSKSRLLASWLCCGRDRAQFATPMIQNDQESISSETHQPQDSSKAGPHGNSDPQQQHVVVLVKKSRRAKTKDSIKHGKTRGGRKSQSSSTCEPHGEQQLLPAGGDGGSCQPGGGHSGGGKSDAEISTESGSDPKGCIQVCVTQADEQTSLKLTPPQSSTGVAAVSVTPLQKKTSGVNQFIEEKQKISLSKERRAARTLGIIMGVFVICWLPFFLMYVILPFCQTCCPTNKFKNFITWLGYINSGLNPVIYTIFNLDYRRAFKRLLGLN
The data set can be described thus: 3H-tyramine saturation and inhibition binding to membranes of Schneider cells expressing tyramine receptor. The following applies: for efficiency at displacing ^3H-tyramine binding: compared with tyramine.

For data set [9], the target named is T2, tyramine receptor (Drosophila melanogaster, UniProt P22270).
T2 construct: oligonucleotides that are used to amplify the open reading frame of the Drosophila tyramine receptor (TyrR); expressed in transfected cells; whole cells or crude membrane fractions
T2 sequence (P22270 27-601): T1 sequence (P22270 27-601)
Briefly: Whole cell 3H-tyramine binding/uptake in transfected Schneider cells. The text has this: For transfection, Drosophila Schneider cells are stably transfected with pAc5(B)-TyrR ORF using the calcium phosphate-DNA coprecipitation protocol as described by Invitrogen Drosophila Expression System (DES) manual. The precipitation protocol is the same for either transient or stable transfection except for the use of an antibiotic resistant plasmid for stable transfection. At least about ten clones of stably transfected cells are selected and separately propagated. Stable clones expressing the receptors are selected by whole cell binding/uptake using ^3H-tyramine. […] Nonspecific binding is determined by including about 50 μM unlabeled-tyramine in the reaction. Binding is quantified counting radioactivity using a using a Liquid Scintillation β-counter (Beckman, Model LS1801). […]
Cells transfected with the tyramine receptor (about 1×10^6 cells/ml) are cultured in each well of a multi-well plate. […] Solubilized cells are transferred into about 4 ml Liquid Scintillation Solution (LSS) and vigorously vortexed for about 30 sec before counting the radioactivity using a Liquid Scintillation β-counter (Beckman, Model LS1801) (LSC).
Receptor specific binding data is expressed as fmol specific binding per 1×10^6 cells and measured as a function of ^3H-tyramine concentration. […]

Setting [10] is: Thrips, 24 h, read-out: mortality of the thrips.
Setting [11] is: imidacloprid alone at 1 ppm, till the end of the experiment at 24 hours post treatment.
Where [12] appears, read: imidacloprid alone at 10 ppm, till the end of the experiment at 24 hours post treatment.
[13] abbreviates: saturation binding to membranes of Schneider cells expressing tyramine receptor.

With `CN/C(=N\[N+](=O)[O-])NCc1cnc(Cl)s1` [CL, clothianidin], the “mortality of the target insect” value in [1] (CL 0.05%, combination 0.05% + 5% (FIG. 6A)) was “no mortality”. In addition, the “KD of the target insect” value in data set [2] (CL alone at 250 ppm (FIG. 4B)) and in data set [2] (CL alone at 500 ppm (FIG. 4A)) was “no KD” throughout.

Take `CC1(C)[C@H](C(=O)O[C@H](C#N)c2cccc(Oc3ccccc3)c2)[C@@H]1C=C(Br)Br` [DM, deltamethrin]: the “100% Kill” value in data set [3] (Table 9: DM 0.037 mg/cm^2, Blend 12 1.9 mg/cm^2) came to 15 min; in [3] (Table 10: DM 0.037 mg/cm^2) it was 12 min.

`N#Cc1nn(-c2c(Cl)cc(C(F)(F)F)cc2Cl)c(N)c1[S+]([O-])C(F)(F)F` (centres unmarked) [Fipronil]: the “# of Flies Killed” value in data set [4] is given as 12/30; in data set [4] (listed as fipnoril) it was 12.

As to `O=[N+]([O-])NC1=NCCN1Cc1ccc(Cl)nc1` [Imidacloprid], the “mortality of the target insect” value in [1] (Imidacloprid alone at 0.05%, 0.033% and 0.01%, combination Imidacloprid 0.033% + 5% Blend 19 (FIG. 6B)) was “no mortality”. Moreover, the “change in aphid numbers” value in [5] was “No changes in aphid numbers”. Further, the “KD of the target insect” value in data set [6] was 0%; in data set [2] (30 seconds post-treatment, Imidacloprid 250 ppm, Blend 19 2.5%, combination 250 ppm + 2.5% (FIG. 4C)) it was 20%; in data set [2] (Imidacloprid 500 ppm, B5028 5%, combination 500 ppm + 5% (FIG. 5)) it was “no KD”. For the same compound, the mortality at 100 ppm was determined as 10% in data set [7] (Thrips, 2 h, read-out: mortality of the thrips); 20% in data set [7] (Thrips, 4 h, read-out: mortality of the thrips); 40% in data set [7] (setting [10]). For the same compound, the mortality at 50 ppm in data set [7] (setting [10]) is 50%. For the same compound, the “KD of the thrips” value in data set [7] (setting [11]) is on record as “no KD”; in data set [7] (setting [12]), “no KD”; in data set [7] (imidacloprid alone at 20 ppm, 24 hours post treatment), 12%; in data set [7] (imidacloprid alone at 50 ppm, 24 hours post treatment), 100%; in [7] (imidacloprid alone at 100 ppm, 2 hours post treatment) it was 10%; in [7] (imidacloprid alone at 100 ppm, 4 hours post treatment), 20%. Further, the “KD of the thrips” value in data set [7] (imidacloprid alone at 100 ppm, 24 hours post treatment) was determined as 80%. The “mortality of the thrips” value in [7] (setting [11]) is reported as “no mortality”; in data set [7] (setting [12]), “no mortality”; in data set [7] (imidacloprid alone at 20 ppm, till the end of the experiment at 24 hours post treatment) it was “no mortality”.

For the compound `NCC(O)c1ccc(O)cc1` (centres unmarked) [Octopamine], in data set [8], the “rank order of potency (Ki and EC50)” value was “tyramine>octopamine>dopamine>serotonin”; the “efficiency at displacing ^3H-tyramine binding” value is on record as “less efficient than tyramine”.

Turning to `NCCc1ccc(O)cc1` [Tyramine (TA), Tyramine], in data set [8], the “rank order of potency (Ki and EC50)” value is reported as “tyramine>octopamine>dopamine>serotonin”. In [9] (concentrations as high as about 100 μM), the “response of untransfected cells” value is “do not respond”.

As for `NCCc1ccc(O)cc1` [^3H-tyramine], in data set [8] (setting [13]), the Bmax entry is reported as “about 0.679 pmol/mg protein” and the Kd was around 1.26 nM. Besides, in data set [9] (whole transfected cells), the “^3H-tyramine concentration at which maximum specific binding occurs” value was “about 5 nM”.

As to `NCCc1ccc(O)c(O)c1` [dopamine, Dopamine], in [8], the “rank order of potency (Ki and EC50)” value is listed as “tyramine>octopamine>dopamine>serotonin”; the “efficiency at displacing ^3H-tyramine binding” value is given as “less efficient than tyramine”.

The mortality is the percentage killed. Usually Kd stands for the constant that tells how readily two partners part at equilibrium. A lower Kd goes with tighter binding.
